Tests used:
EED (1-441)-His protein = EED (1-441)-His protein (Homo sapiens (Human), UniProt O75530); assay: EED-H3K27Me3 peptide competition binding assay by AlphaScreen; conditions: read-out: (a) IC50 EED Alphascreen binding Qualified
From the text: EED-H3K27Me3 peptide competition binding assay by AlphaScreen (α-screen)

[1] = target: wild type PRC2 (wtPRC2) complex (Homo sapiens (Human), UniProt O75530); assay: EED LC-MS assay; assay type: biochemical; conditions: read-out: (b) IC50 EED LC-MS Qualified
Method: A 6 μL solution of 3 μM of the peptide substrate H3K27Me0 (histone H3[21-44]-biotin) in reaction buffer was added to initiate each reaction. […] ELISA (H3K27 Methylation) Assay

Sequence of EED (1-441)-His protein (O75530 whole entry): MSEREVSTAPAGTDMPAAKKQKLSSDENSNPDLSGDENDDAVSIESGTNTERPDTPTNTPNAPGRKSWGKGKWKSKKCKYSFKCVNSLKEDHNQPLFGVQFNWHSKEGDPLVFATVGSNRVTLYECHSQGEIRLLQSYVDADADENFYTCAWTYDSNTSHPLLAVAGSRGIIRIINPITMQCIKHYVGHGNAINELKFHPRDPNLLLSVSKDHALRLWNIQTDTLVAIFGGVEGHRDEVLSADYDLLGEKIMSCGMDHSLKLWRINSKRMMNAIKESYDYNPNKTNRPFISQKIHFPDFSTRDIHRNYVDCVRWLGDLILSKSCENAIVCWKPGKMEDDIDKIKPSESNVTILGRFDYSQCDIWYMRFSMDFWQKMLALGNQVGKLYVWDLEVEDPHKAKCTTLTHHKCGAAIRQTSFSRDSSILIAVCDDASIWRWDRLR
Sequence of wild type PRC2 (wtPRC2) complex (O75530 whole entry): as above
Sequence of wild type PRC2 (wtPRC2) complex (Q15910 whole entry partner): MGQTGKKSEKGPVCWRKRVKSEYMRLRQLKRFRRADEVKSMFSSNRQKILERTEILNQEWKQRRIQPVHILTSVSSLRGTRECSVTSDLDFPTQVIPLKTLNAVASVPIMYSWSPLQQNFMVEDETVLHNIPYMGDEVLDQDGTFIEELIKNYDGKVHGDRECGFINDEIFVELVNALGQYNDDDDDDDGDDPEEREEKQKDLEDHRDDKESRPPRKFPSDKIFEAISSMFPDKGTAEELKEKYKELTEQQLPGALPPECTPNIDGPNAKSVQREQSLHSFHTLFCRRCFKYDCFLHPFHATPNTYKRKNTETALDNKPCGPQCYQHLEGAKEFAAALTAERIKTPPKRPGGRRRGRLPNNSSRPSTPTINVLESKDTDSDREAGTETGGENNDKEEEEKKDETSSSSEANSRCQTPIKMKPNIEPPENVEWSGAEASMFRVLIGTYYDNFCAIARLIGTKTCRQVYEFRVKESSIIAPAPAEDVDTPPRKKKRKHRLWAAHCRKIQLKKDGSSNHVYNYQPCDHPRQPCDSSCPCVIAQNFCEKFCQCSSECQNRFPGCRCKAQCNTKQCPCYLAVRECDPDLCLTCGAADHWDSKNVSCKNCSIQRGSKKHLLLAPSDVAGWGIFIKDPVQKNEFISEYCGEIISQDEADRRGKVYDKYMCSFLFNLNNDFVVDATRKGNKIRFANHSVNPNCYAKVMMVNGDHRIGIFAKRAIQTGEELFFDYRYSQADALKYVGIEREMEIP
Sequence of wild type PRC2 (wtPRC2) complex (Q15022 whole entry partner): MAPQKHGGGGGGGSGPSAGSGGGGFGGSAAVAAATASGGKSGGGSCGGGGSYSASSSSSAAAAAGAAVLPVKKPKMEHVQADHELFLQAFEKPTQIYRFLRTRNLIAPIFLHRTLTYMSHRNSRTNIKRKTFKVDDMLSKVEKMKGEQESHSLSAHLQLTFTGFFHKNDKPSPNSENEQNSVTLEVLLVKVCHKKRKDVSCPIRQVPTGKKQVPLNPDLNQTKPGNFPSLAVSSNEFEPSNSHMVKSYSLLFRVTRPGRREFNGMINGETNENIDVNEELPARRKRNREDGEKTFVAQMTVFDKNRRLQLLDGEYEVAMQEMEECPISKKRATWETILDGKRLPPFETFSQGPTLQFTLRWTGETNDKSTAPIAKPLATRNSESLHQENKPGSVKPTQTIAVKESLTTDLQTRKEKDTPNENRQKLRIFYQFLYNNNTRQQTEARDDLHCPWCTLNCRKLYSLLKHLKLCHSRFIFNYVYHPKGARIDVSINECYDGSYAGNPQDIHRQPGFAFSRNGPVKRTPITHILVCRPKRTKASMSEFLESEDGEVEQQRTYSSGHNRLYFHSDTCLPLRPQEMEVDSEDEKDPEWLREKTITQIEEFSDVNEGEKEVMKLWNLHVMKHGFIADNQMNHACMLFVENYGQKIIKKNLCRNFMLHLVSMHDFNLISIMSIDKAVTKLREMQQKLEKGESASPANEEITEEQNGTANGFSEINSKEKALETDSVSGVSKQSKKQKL

Compound	IC50 (EED (1-441)-His protein) [µM]	IC50 [1] [µM]
Cc1cc(-c2cnc(NCc3c(F)ccc4c3CCO4)n3cnnc23)n(C)n1 [Example 1, 8-(1,3-dimethyl-1H-pyrazol-5-yl)-N-((5-fluoro-2,3-dihydrobenzofuran-4-yl)methyl)-[1,2,4]triazolo[4,3-c]pyrimidin-5-amine]	0.0041	0.0082
Cc1nn(C(C)C)cc1-c1cnc(NCc2c(F)ccc3c2CCO3)n2cnnc12 [Example 4, N-((5-Fluoro-2,3-dihydrobenzofuran-4-yl)methyl)-8-(1-isopropyl-3-methyl-1H-pyrazol-4-yl)-[1,2,4]triazolo[4,3-c]pyrimidin-5-amine]	0.0032	0.0039
OCc1ncccc1-c1cnc(NCc2c(F)ccc3c2CCO3)n2cnnc12 [Example 7, (3-(5-(((5-fluoro-2,3-dihydrobenzofuran-4-yl)methyl)amino)-[1,2,4]triazolo[4,3-c]pyrimidin-8-yl)pyridin-2-yl)methanol]	0.0048	0.0093
Cc1nc(C2CC2)ncc1-c1cnc(NCc2c(F)ccc3c2CCO3)n2cnnc12 [Example 8, 8-(2-cyclopropyl-4-methylpyrimidin-5-yl)-N-((5-fluoro-2,3-dihydrobenzofuran-4-yl)methyl)-[1,2,4]triazolo[4,3-c]pyrimidin-5-amine]	0.0049	0.0072
Cc1nc(OC(C)C)ncc1-c1cnc(NCc2c(F)ccc3c2CCO3)n2cnnc12 [Example 9, N-((5-fluoro-2,3-dihydrobenzofuran-4-yl)methyl)-8-(2-isopropoxy-4-methylpyrimidin-5-yl)-[1,2,4]triazolo[4,3-c]pyrimidin-5-amine]	0.0041	0.0079
CN(C)Cc1ccc(-c2cnc(NCc3cccc4c3CCO4)n3cnnc23)cc1 [Example 11, N-((2,3-dihydrobenzofuran-4-yl)methyl)-8-(4-((dimethylamino)methyl)phenyl)-[1,2,4]triazolo[4,3-c]pyrimidin-5-amine]	0.0069	0.02
CS(=O)(=O)c1ccc(-c2cnc(NCc3cccc4c3CCO4)n3cnnc23)cc1 [Example 12, N-((2,3-dihydrobenzofuran-4-yl)methyl)-8-(4-(methylsulfonyl)phenyl)-[1,2,4]triazolo[4,3-c]pyrimidin-5-amine]	0.0079	0.0159
CN1CCN(c2ccc(-c3cnc(NCc4cccc5c4CCO5)n4cnnc34)cn2)CC1 [Example 20, N-((2,3-dihydrobenzofuran-4-yl)methyl)-8-(6-(4-methylpiperazin-1-yl)pyridin-3-yl)-[1,2,4]triazolo[4,3-c]pyrimidin-5-amine]	0.0144	0.0171
COc1ccc(-c2cnc(NCc3cccc4c3CCO4)n3cnnc23)cn1 [Example 21, N-((2,3-dihydrobenzofuran-4-yl)methyl)-8-(6-methoxypyridin-3-yl)-[1,2,4]triazolo[4,3-c]pyrimidin-5-amine]	0.0252	0.026
Cc1nn(C)c(C)c1-c1cnc(NCc2cccc3c2CCO3)n2cnnc12 [Example 24, N-((2,3-dihydrobenzofuran-4-yl)methyl)-8-(1,3,5-trimethyl-1H-pyrazol-4-yl)-[1,2,4]triazolo[4,3-c]pyrimidin-5-amine]	0.0304	0.037
CS(=O)(=O)c1ccc(-c2cnc(NCc3cccc4c3CCO4)n3cnnc23)c(F)c1 [Example 26, N-((2,3-dihydrobenzofuran-4-yl)methyl)-8-(2-fluoro-4-(methylsulfonyl)phenyl)-[1,2,4]triazolo[4,3-c]pyrimidin-5-amine]	0.0099	0.0171
CS(=O)(=O)c1cccc(-c2cnc(NCc3cccc4c3CCO4)n3cnnc23)c1 [Example 27, N-((2,3-dihydrobenzofuran-4-yl)methyl)-8-(3-(methylsulfonyl)phenyl)-[1,2,4]triazolo[4,3-c]pyrimidin-5-amine]	0.0199	0.0472
Cc1nn(C)cc1-c1cnc(NCc2cccc3c2CCO3)n2cnnc12 [Example 30, N-((2,3-dihydrobenzofuran-4-yl)methyl)-8-(1,3-dimethyl-1H-pyrazol-4-yl)-[1,2,4]triazolo[4,3-c]pyrimidin-5-amine]	0.0053	0.0248
Cc1ncccc1-c1cnc(NCc2c(F)ccc3occc23)n2cnnc12 [Example 207, N-((5-fluorobenzofuran-4-yl)methyl)-8-(2-methylpyridin-3-yl)-[1,2,4]triazolo[4,3-c]pyrimidin-5-amine]	–	0.182

The remaining compounds from weak to strong by IC50 [1], led by results:

IC50 (EED (1-441)-His protein) [µM]	IC50 [1] [µM]	Compound
1.98	1.82	CC1Cc2c(CNc3ncc(-c4ccc(CN(C)C)cc4)c4nncn34)cccc2O1 (stereo not shown) [Example 22, 8-(4-((dimethylamino)methyl)phenyl)-N-((2-methyl-2,3-dihydrobenzofuran-4-yl)methyl)-[1,2,4]triazolo[4,3-c]pyrimidin-5-amine]
0.0536	0.0477	c1ccc(-c2cnc(NCc3cccc4c3CCO4)n3cnnc23)cc1 [Example 13, N-((2,3-dihydrobenzofuran-4-yl)methyl)-8-phenyl-[1,2,4]triazolo[4,3-c]pyrimidin-5-amine]
0.0307	0.0449	Cn1cc(-c2cnc(NCc3cccc4c3CCO4)n3cnnc23)cn1 [Example 25, N-((2,3-dihydrobenzofuran-4-yl)methyl)-8-(1-methyl-1H-pyrazol-4-yl)-[1,2,4]triazolo[4,3-c]pyrimidin-5-amine]
0.0185	0.0279	CN1CCN(c2cc(-c3cnc(NCc4cccc5c4CCO5)n4cnnc34)ccn2)CC1 [Example 18, N-((2,3-dihydrobenzofuran-4-yl)methyl)-8-(2-(4-methylpiperazin-1-yl)pyridin-4-yl)-[1,2,4]triazolo[4,3-c]pyrimidin-5-amine]
0.0111	0.0276	CS(=O)(=O)c1ccc(-c2cnc(NCc3cccc4c3CCO4)n3cnnc23)cn1 [Example 28, N-((2,3-dihydrobenzofuran-4-yl)methyl)-8-(6-(methylsulfonyl)pyridin-3-yl)-[1,2,4]triazolo[4,3-c]pyrimidin-5-amine]
0.0311	0.0257	CN(C)Cc1ccc(-c2cnc(NCc3c(F)ccc4c3CCO4)n3cnnc23)cc1 [Example 23, 8-(4-((dimethylamino)methyl)phenyl)-N-((5-fluoro-2,3-dihydrobenzofuran-4-yl)methyl)-[1,2,4]triazolo[4,3-c]pyrimidin-5-amine]
0.0108	0.024	c1cncc(-c2cnc(NCc3cccc4c3CCO4)n3cnnc23)c1 [Example 16, N-((2,3-dihydrobenzofuran-4-yl)methyl)-8-(pyridin-3-yl)-[1,2,4]triazolo[4,3-c]pyrimidin-5-amine]
0.0434	0.0229	Clc1ccccc1-c1cnc(NCc2cccc3c2CCO3)n2cnnc12 [Example 32, 8-(2-chlorophenyl)-N-((2,3-dihydrobenzofuran-4-yl)methyl)-[1,2,4]triazolo[4,3-c]pyrimidin-5-amine]
0.0302	0.0215	Fc1ccccc1-c1cnc(NCc2cccc3c2CCO3)n2cnnc12 [Example 31, N-((2,3-dihydrobenzofuran-4-yl)methyl)-8-(2-fluorophenyl)-[1,2,4]triazolo[4,3-c]pyrimidin-5-amine]
0.0128	0.0206	CN(C)S(=O)(=O)c1ccc(-c2cnc(NCc3cccc4c3CCO4)n3cnnc23)cc1 [Example 15, 4-(5-(((2,3-dihydrobenzofuran-4-yl)methyl)amino)-[1,2,4]triazolo[4,3-c]pyrimidin-8-yl)-N,N-dimethylbenzenesulfonamide]
0.0189	0.0192	CS(=O)(=O)Nc1ccc(-c2cnc(NCc3cccc4c3CCO4)n3cnnc23)cc1 [Example 19, N-(4-(5-(((2,3-dihydrobenzofuran-4-yl)methyl)amino)-[1,2,4]triazolo[4,3-c]pyrimidin-8-yl)phenyl)methanesulfonamide]
0.0081	0.0145	O=S(=O)(c1ccc(-c2cnc(NCc3cccc4c3CCO4)n3cnnc23)cc1)C1CCNCC1 [Example 29, N-((2,3-dihydrobenzofuran-4-yl)methyl)-8-(4-(piperidin-4-ylsulfonyl)phenyl)-[1,2,4]triazolo[4,3-c]pyrimidin-5-amine]
0.0073	0.0138	[O-][n+]1cccc(-c2cnc(NCc3c(F)ccc4c3CCO4)n3cnnc23)c1 [Example 10, 3-(5-(((5-fluoro-2,3-dihydrobenzofuran-4-yl)methyl)amino)-[1,2,4]triazolo[4,3-c]pyrimidin-8-yl)pyridine 1-oxide]
0.0078	0.0128	CC(c1ccc(-c2cnc(NCc3cccc4c3CCO4)n3cnnc23)cc1)N1CCCC1 (stereo not shown) [Example 14, N-((2,3-dihydrobenzofuran-4-yl)methyl)-8-(4-(1-(pyrrolidin-1-yl)ethyl)phenyl)-[1,2,4]triazolo[4,3-c]pyrimidin-5-amine]
0.0048	0.0097	COc1cc(C)c(-c2cnc(NCc3c(F)ccc4c3CCO4)n3cnnc23)cn1 [Example 5, N-((5-fluoro-2,3-dihydrobenzofuran-4-yl)methyl)-8-(6-methoxy-4-methylpyridin-3-yl)-[1,2,4]triazolo[4,3-c]pyrimidin-5-amine]
0.0052	0.0077	Cc1nc(C2CC2)ccc1-c1cnc(NCc2c(F)ccc3c2CCO3)n2cnnc12 [Example 6, 8-(6-Cyclopropyl-2-methylpyridin-3-yl)-N-((5-fluoro-2,3-dihydrobenzofuran-4-yl)methyl)-[1,2,4]triazolo[4,3-c]pyrimidin-5-amine]
0.0038	0.0064	Cc1ncc(-c2cnc(NCc3c(F)ccc4c3CCO4)n3cnnc23)c(C)n1 [Example 3, 8-(2,4-Dimethylpyrimidin-5-yl)-N-((5-fluoro-2,3-dihydrobenzofuran-4-yl)methyl)-[1,2,4]triazolo[4,3-c]pyrimidin-5-amine]

— US9580437B2, “Triazolopyrimidine compounds and uses thereof” (Novartis AG, priority 2014, dated 2017)
